# In patent US11142560B2, “Biphasic single-chain insulin analogues” (Case Western Reserve University, priority 2014, dated 2021):
# Bridge positions count the residues as written; N and C are the ends. Ends that are not written are not given here.
# Molecular target: A isoform of the insulin receptor (Homo sapiens, UniProt P06213)
# Test: Receptor-binding assay, insulin receptor A isoform
# Conditions: two-site sequential model, read-out: equilibrium dissociation constant / binding constant
# Procedure: The receptor-binding affinities of SCI-57DP and SCI-57PE were determined in relation to wild-type human insulin. The assay employed the A isoform of the insulin receptor. […] The protocol for assay of receptor-binding activities was as follows. Microtiter strip plates (Nunc Maxisorb) were incubated overnight at 4° C. with AU5 IgG (100 μl/well of […] in phosphate-buffered saline). Binding data were analyzed by a two-site sequential model.
# A isoform of the insulin receptor, sequence (P06213 28-746 isoform P06213-2 limits assumed): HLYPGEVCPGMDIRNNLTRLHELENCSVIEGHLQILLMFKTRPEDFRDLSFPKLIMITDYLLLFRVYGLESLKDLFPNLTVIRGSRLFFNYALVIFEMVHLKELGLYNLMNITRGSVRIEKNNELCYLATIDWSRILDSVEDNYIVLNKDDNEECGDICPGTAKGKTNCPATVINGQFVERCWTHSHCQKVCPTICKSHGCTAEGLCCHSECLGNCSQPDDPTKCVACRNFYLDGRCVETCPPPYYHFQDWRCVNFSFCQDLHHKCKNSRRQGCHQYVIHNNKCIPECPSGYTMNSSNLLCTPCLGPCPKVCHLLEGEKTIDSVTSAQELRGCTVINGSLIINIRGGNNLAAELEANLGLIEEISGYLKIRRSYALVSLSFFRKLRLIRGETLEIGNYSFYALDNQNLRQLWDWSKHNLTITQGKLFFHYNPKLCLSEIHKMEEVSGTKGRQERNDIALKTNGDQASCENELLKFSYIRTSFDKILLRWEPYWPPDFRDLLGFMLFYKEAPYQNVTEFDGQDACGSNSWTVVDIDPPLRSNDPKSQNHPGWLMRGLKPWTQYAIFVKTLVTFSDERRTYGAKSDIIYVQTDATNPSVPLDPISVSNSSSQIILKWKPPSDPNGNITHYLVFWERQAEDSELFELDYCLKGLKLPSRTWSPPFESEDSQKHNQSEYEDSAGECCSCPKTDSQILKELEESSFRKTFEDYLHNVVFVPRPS
# A isoform of the insulin receptor, sequence (P06213 763-1382 partner limits assumed): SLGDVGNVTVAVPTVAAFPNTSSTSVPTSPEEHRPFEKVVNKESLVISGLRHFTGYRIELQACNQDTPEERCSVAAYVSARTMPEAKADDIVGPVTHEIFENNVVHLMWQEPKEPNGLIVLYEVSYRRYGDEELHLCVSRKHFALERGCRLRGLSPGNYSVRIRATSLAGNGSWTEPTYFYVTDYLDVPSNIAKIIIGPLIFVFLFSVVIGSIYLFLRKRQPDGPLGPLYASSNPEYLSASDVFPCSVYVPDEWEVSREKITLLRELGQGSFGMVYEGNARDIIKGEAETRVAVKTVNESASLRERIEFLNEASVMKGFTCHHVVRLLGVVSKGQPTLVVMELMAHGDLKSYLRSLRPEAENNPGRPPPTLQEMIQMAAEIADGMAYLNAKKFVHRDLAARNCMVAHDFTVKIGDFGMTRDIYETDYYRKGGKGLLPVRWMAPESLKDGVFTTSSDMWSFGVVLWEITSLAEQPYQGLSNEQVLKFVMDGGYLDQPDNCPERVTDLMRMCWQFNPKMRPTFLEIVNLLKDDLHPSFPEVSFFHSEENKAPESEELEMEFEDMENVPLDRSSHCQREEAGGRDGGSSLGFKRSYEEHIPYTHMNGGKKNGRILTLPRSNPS
row,Kd [nM],Sequence
1,0.06,"FVNQHLCGSHLVEALYLVCGERGFFYTDPTEEGPRRGIVEQCCHSICSLEQLENYCN (disulfide 7-43, 19-56, 42-47) [SCI-57DP]"
2,0.08,"FVNQHLCGSHLVEALYLVCGERGFFYTPETEEGPRRGIVEQCCHSICSLEQLENYCN (disulfide 7-43, 19-56, 42-47) [SCI-57PE]"
